Measurements published in article PMC12649549, “Sequence Permutation Generated Lysine and Tryptophan-Rich Antimicrobial Peptides with Enhanced Therapeutic Index” (Antibiotics, 2025).
Where two headings read alike, the source gives them in different places.

How the values were obtained:
[1] = test system: A. baumannii 14B00100 (Acinetobacter sp., BCRC number 14B0100)
Outline: (§1)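 Broth microdilution per CLSI in Müller-Hinton broth and modified LYM broth (pH 7.4; variants with 300–50 mM NaCl, 2.5–0.5 mM MgCl2, or pH 6.5–4.5). Inoculum 5 × 10^5 CFU/mL; peptides at final 50 to 0.78 µg/mL, twofold series. MIC reported; three independent repeats.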

[2] = test system: A. baumannii 14B0091 (Acinetobacter sp., BCRC number 14B0091)
Outline: as §1

[3] = test system: Escherichia coli (ATCC 25922)
Outline: as §1

[4] = test system: Pseudomonas aeruginosa Migula (ATCC 27853)
Outline: as §1

S. aureus ATCC 33591 = test system: S. aureus ATCC 33591
Outline: as §1

S. aureus ATCC 33593 = test system: S. aureus ATCC 33593
Outline: as §1

Gram-negative bacteria = experiment: Geometric mean MIC and therapeutic index, Gram-negative bacteria; type: cell-based; conditions: Gram-negative bacteria; for GM G− (geometric mean of the MIC values): MH broth, MIC >50 µg/mL counted as 100 µg/mL; for Therapeutic Index (TI) G−: HC10/GM
Outline: (§2)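 Read-out is the MIC by CLSI broth microdilution, summarised as a geometric mean across strains, with TI defined as HC10 on human red cells over that GM. Media were MH broth and LYM broth adjusted for salt, Mg2+ and pH; peptides ran 0.78–50 µg/mL.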

[5] = test system: Both Gram-positive and -negative bacteria; experiment: Geometric mean MIC, therapeutic index and fold changes of MIC, whole panel of strains; type: cell-based; conditions: for GM G−/+ (geometric mean of the MIC values): Both Gram-positive and -negative bacteria, MH broth, MIC >50 µg/mL counted as 100 µg/mL; for Therapeutic Index (TI) G−/+: HC10/GM, both Gram-positive and -negative bacteria
Outline: as §2

[6] = LYM broth, 0 mM NaCl, 16 h, 37 °C
[7] = LYM broth, 50 mM NaCl, 16 h, 37 °C
[8] = LYM broth, 100 mM NaCl, 16 h, 37 °C
[9] = LYM broth, 200 mM (NaCl), 16 h, 37 °C
[10] = LYM broth, 300 mM (NaCl), 16 h, 37 °C
[11] = MH broth, 5 × 10^5 CFU/mL, 16 h, 37 °C, repeated three times

Ac-WLAKKKKWRKWLK-NH2 [Peptide W5K08]
MIC [1, 6]: 3.13 µg/mL | MIC ([1]; LYM broth, 0.5 mM MgCl2): 3.13 µg/mL | MIC ([1]; LYM broth, 1.5 mM MgCl2): 3.13 µg/mL | MIC ([1]; LYM broth, 2.5 mM MgCl2): 6.25 µg/mL | MIC [1, 7]: 6.25 µg/mL | MIC [1, 8]: 25 µg/mL | MIC [1, 9]: >50 µg/mL | MIC [1, 10]: >50 µg/mL | MIC ([1]; LYM broth, pH 4.5): 3.13 µg/mL | MIC ([1]; LYM broth, pH 5.5): 3.13 µg/mL | MIC ([1]; LYM broth, pH 6.5): 3.13 µg/mL | MIC [1, 11]: >50 µg/mL | MIC [2, 6]: 3.13 µg/mL | MIC ([2]; LYM broth, 0.5 mM MgCl2): 3.13 µg/mL | MIC ([2]; LYM broth, 1.5 mM MgCl2): 3.13 µg/mL | MIC ([2]; LYM broth, 2.5 mM MgCl2): 6.25 µg/mL | MIC [2, 7]: 6.25 µg/mL | MIC [2, 8]: 25 µg/mL | MIC [2, 9]: >50 µg/mL | MIC [2, 10]: >50 µg/mL | MIC ([2]; LYM broth, pH 4.5): 6.25 µg/mL | MIC ([2]; LYM broth, pH 5.5): 3.13 µg/mL | MIC ([2]; LYM broth, pH 6.5): 3.13 µg/mL | MIC [2, 11]: >50 µg/mL | MIC [3, 6]: 3.13 µg/mL | MIC ([3]; LYM broth, 0.5 mM MgCl2): 6.25 µg/mL | MIC ([3]; LYM broth, 1.5 mM MgCl2): 6.25 µg/mL | MIC ([3]; LYM broth, 2.5 mM MgCl2): 6.25 µg/mL | MIC [3, 7]: 12.5 µg/mL | MIC [3, 8]: 12.5 µg/mL | MIC [3, 9]: 50 µg/mL | MIC [3, 10]: >50 µg/mL | MIC ([3]; LYM broth, pH 4.5): 3.13 µg/mL | MIC ([3]; LYM broth, pH 5.5): 3.13 µg/mL | MIC ([3]; LYM broth, pH 6.5): 3.13 µg/mL | MIC [3, 11]: 50 µg/mL | MIC [4, 6]: 3.13 µg/mL | MIC ([4]; LYM broth, 0.5 mM MgCl2): 3.13 µg/mL | MIC ([4]; LYM broth, 1.5 mM MgCl2): 6.25 µg/mL | MIC ([4]; LYM broth, 2.5 mM MgCl2): 12.5 µg/mL | MIC [4, 7]: 6.25 µg/mL | MIC [4, 8]: 25 µg/mL | MIC [4, 9]: 50 µg/mL | MIC [4, 10]: >50 µg/mL | MIC ([4]; LYM broth, pH 4.5): 6.25 µg/mL | MIC ([4]; LYM broth, pH 5.5): 3.13 µg/mL | MIC ([4]; LYM broth, pH 6.5): 3.13 µg/mL | MIC [4, 11]: 25 µg/mL | MIC (S. aureus ATCC 33591; [6]): 25 µg/mL | MIC (S. aureus ATCC 33591; LYM broth, 0.5 mM MgCl2): 25 µg/mL | MIC (S. aureus ATCC 33591; LYM broth, 1.5 mM MgCl2): 50 µg/mL | MIC (S. aureus ATCC 33591; LYM broth, 2.5 mM MgCl2): 50 µg/mL | MIC (S. aureus ATCC 33591; [7]): 50 µg/mL | MIC (S. aureus ATCC 33591; [8]): 50 µg/mL | MIC (S. aureus ATCC 33591; [9]): 50 µg/mL | MIC (S. aureus ATCC 33591; [10]): >50 µg/mL | MIC (S. aureus ATCC 33591; LYM broth, pH 4.5): 25 µg/mL | MIC (S. aureus ATCC 33591; LYM broth, pH 5.5): 25 µg/mL | MIC (S. aureus ATCC 33591; LYM broth, pH 6.5): 12.5 µg/mL | MIC (S. aureus ATCC 33591; [11]): >50 µg/mL | MIC (S. aureus ATCC 33593; [6]): 25 µg/mL | MIC (S. aureus ATCC 33593; LYM broth, 0.5 mM MgCl2): 25 µg/mL | MIC (S. aureus ATCC 33593; LYM broth, 1.5 mM MgCl2): 25 µg/mL | MIC (S. aureus ATCC 33593; LYM broth, 2.5 mM MgCl2): 50 µg/mL | MIC (S. aureus ATCC 33593; [7]): 50 µg/mL | MIC (S. aureus ATCC 33593; [8]): 50 µg/mL | MIC (S. aureus ATCC 33593; [9]): >50 µg/mL | MIC (S. aureus ATCC 33593; [10]): >50 µg/mL | MIC (S. aureus ATCC 33593; LYM broth, pH 4.5): 25 µg/mL | MIC (S. aureus ATCC 33593; LYM broth, pH 5.5): 12.5 µg/mL | MIC (S. aureus ATCC 33593; LYM broth, pH 6.5): 12.5 µg/mL | MIC (S. aureus ATCC 33593; [11]): >50 µg/mL | GM G− (geometric mean of the MIC values) (Gram-negative bacteria): 50.0 µg/mL | Therapeutic Index (TI) G− (Gram-negative bacteria): 2.2 | GM G−/+ (geometric mean of the MIC values) [5]: 61.6 µg/mL | Therapeutic Index (TI) G−/+ [5]: 1.8

Ac-WLKWLAKKKKWRK-NH2 [Peptide W5K05]
MIC [1, 6]: 0.78 µg/mL | MIC ([1]; LYM broth, 0.5 mM MgCl2): 1.56 µg/mL | MIC ([1]; LYM broth, 1.5 mM MgCl2): 1.56 µg/mL | MIC ([1]; LYM broth, 2.5 mM MgCl2): 1.56 µg/mL | MIC [1, 7]: 1.56 µg/mL | MIC [1, 8]: 3.13 µg/mL | MIC [1, 9]: 6.25 µg/mL | MIC [1, 10]: 12.5 µg/mL | MIC ([1]; LYM broth, pH 4.5): 1.56 µg/mL | MIC ([1]; LYM broth, pH 5.5): 1.56 µg/mL | MIC ([1]; LYM broth, pH 6.5): 1.56 µg/mL | MIC [1, 11]: 12.5 µg/mL | MIC [2, 6]: 1.56 µg/mL | MIC ([2]; LYM broth, 0.5 mM MgCl2): 1.56 µg/mL | MIC ([2]; LYM broth, 1.5 mM MgCl2): 1.56 µg/mL | MIC ([2]; LYM broth, 2.5 mM MgCl2): 1.56 µg/mL | MIC [2, 7]: 1.56 µg/mL | MIC [2, 8]: 3.13 µg/mL | MIC [2, 9]: 6.25 µg/mL | MIC [2, 10]: 25 µg/mL | MIC ([2]; LYM broth, pH 4.5): 3.13 µg/mL | MIC ([2]; LYM broth, pH 5.5): 1.56 µg/mL | MIC ([2]; LYM broth, pH 6.5): 1.56 µg/mL | MIC [2, 11]: 12.5 µg/mL | MIC [3, 6]: 1.56 µg/mL | MIC ([3]; LYM broth, 0.5 mM MgCl2): 3.13 µg/mL | MIC ([3]; LYM broth, 1.5 mM MgCl2): 6.25 µg/mL | MIC ([3]; LYM broth, 2.5 mM MgCl2): 6.25 µg/mL | MIC [3, 7]: 3.13 µg/mL | MIC [3, 8]: 12.5 µg/mL | MIC [3, 9]: 50 µg/mL | MIC [3, 10]: >50 µg/mL | MIC ([3]; LYM broth, pH 4.5): 1.56 µg/mL | MIC ([3]; LYM broth, pH 5.5): 1.56 µg/mL | MIC ([3]; LYM broth, pH 6.5): 1.56 µg/mL | MIC [3, 11]: 12.5 µg/mL | MIC [4, 6]: 3.13 µg/mL | MIC ([4]; LYM broth, 0.5 mM MgCl2): 3.13 µg/mL | MIC ([4]; LYM broth, 1.5 mM MgCl2): 3.13 µg/mL | MIC ([4]; LYM broth, 2.5 mM MgCl2): 6.25 µg/mL | MIC [4, 7]: 6.25 µg/mL | MIC [4, 8]: 12.5 µg/mL | MIC [4, 9]: >50 µg/mL | MIC [4, 10]: >50 µg/mL | MIC ([4]; LYM broth, pH 4.5): 1.56 µg/mL | MIC ([4]; LYM broth, pH 5.5): 1.56 µg/mL | MIC ([4]; LYM broth, pH 6.5): 1.56 µg/mL | MIC [4, 11]: 25 µg/mL | MIC (S. aureus ATCC 33591; [6]): 6.25 µg/mL | MIC (S. aureus ATCC 33591; LYM broth, 0.5 mM MgCl2): 6.25 µg/mL | MIC (S. aureus ATCC 33591; LYM broth, 1.5 mM MgCl2): 12.5 µg/mL | MIC (S. aureus ATCC 33591; LYM broth, 2.5 mM MgCl2): 12.5 µg/mL | MIC (S. aureus ATCC 33591; [7]): 6.25 µg/mL | MIC (S. aureus ATCC 33591; [8]): 12.5 µg/mL | MIC (S. aureus ATCC 33591; [9]): 25 µg/mL | MIC (S. aureus ATCC 33591; [10]): 50 µg/mL | MIC (S. aureus ATCC 33591; LYM broth, pH 4.5): 6.25 µg/mL | MIC (S. aureus ATCC 33591; LYM broth, pH 5.5): 3.13 µg/mL | MIC (S. aureus ATCC 33591; LYM broth, pH 6.5): 3.13 µg/mL | MIC (S. aureus ATCC 33591; [11]): 50 µg/mL | MIC (S. aureus ATCC 33593; [6]): 6.25 µg/mL | MIC (S. aureus ATCC 33593; LYM broth, 0.5 mM MgCl2): 12.5 µg/mL | MIC (S. aureus ATCC 33593; LYM broth, 1.5 mM MgCl2): 12.5 µg/mL | MIC (S. aureus ATCC 33593; LYM broth, 2.5 mM MgCl2): 12.5 µg/mL | MIC (S. aureus ATCC 33593; [7]): 6.25 µg/mL | MIC (S. aureus ATCC 33593; [8]): 12.5 µg/mL | MIC (S. aureus ATCC 33593; [9]): 25 µg/mL | MIC (S. aureus ATCC 33593; [10]): 50 µg/mL | MIC (S. aureus ATCC 33593; LYM broth, pH 4.5): 3.13 µg/mL | MIC (S. aureus ATCC 33593; LYM broth, pH 5.5): 3.13 µg/mL | MIC (S. aureus ATCC 33593; LYM broth, pH 6.5): 3.13 µg/mL | MIC (S. aureus ATCC 33593; [11]): 50 µg/mL | GM G− (geometric mean of the MIC values) (Gram-negative bacteria): 12.5 µg/mL | Therapeutic Index (TI) G− (Gram-negative bacteria): 8.7 | GM G−/+ (geometric mean of the MIC values) [5]: 20.3 µg/mL | Therapeutic Index (TI) G−/+ [5]: 5.4
